From article PMC4434572, “Identification of novel drugs to target dormant micrometastases” (BMC Cancer, 2015) come the findings set out here.

Molecules are shown by their SMILES. Several values for one entry are separate records, joined by “and”; a condition that tells them apart may be missing. Equal entries are not always repeated. Where two headings read alike, the source gives them in different places.

One series relates to DU145 (prostate). Description: Proliferation EC50 on Matrigel vs SISgel. In kind it is cell-based.
A further series relates to MDA-MB-435-GFP cells. Description: Flank xenograft model of ECM-suppressed cells co-injected with SISgel. It counts as in vivo, nu/nu mice. As to conditions: 45 mg/kg i.p. three times weekly for 3 weeks; 4 weeks after implantation. The procedure: The efficacy of DT320 was assessed using a flank xenograft model of ECM-suppressed cancer cells that we developed, as well as an orthotopic model of “triple-negative” breast cancer. All animal protocols were reviewed and approved by the OUHSC Institutional Animal Care and Use Committee according to criteria established by the NIH Office of Laboratory Animal Welfare, and animals were housed 5 per cage with enrichment (tubes) and wood chips in the AALAC-accredited OUHSC Animal Facility with a 12 h light/dark cycle. Animals had access to water and food ad libatum. Animals were monitored daily by trained facility personnel. In the flank model, GFP-labeled cells were co-injected with SISgel, which produces a suppressed, normalized phenotype that persists after the SISgel is resorbed, but which can re-emerge into active tumor growth after 30–60 days. Animals were all female nu/nu mice (NCI National Laboratory Frederick/Charles River animal production program). An optimized number of 5 × 10^5 GFP-labeled MDA-MB-435 cells in 100 μL DMEM medium, without additives, were mixed with 100 μL of SISgel and were kept on ice until injection to prevent polymerization of the SISgel. […] The cells injected into the flanks remained as a non-growing spot, as assessed by fluorometry of the spots and the lack of mitoses seen in tissue sections, for about 3–5 weeks before some began resuming malignant growth. […]

The next series has as its system Capan-1 (pancreatic). Description: Proliferation EC50 on SISgel vs monolayer. In kind it is cell-based. The note with it: n = 6-8. The source says: (§1) The libraries were obtained from the NCI (Diversity Library I) comprised of 2,918 compounds and a 10,000 compound diversity library from ChemBridge, Inc. (DiverSet-EXP). The NCI library is no longer available in the form used here, but how it was constructed is described (http://dtp.nci.nih.gov/branches/dscb/diversity_explanation.html). The ChemBridge library is a subset (Set Code NM1024) of the full 50,000 compound library (http://www.chembridge.com/screening_libraries/diversity_libraries/). Compounds were diluted to 100 μM before use. SISgel was prepared as described previously from powdered porcine small intestine submucosa obtained from Cook Biotech (W. Lafayette, IN). It is a natural product that is used extensively in tissue engineering as a bioscaffold. J82 bladder cancer cells and other cell lines were obtained from the ATCC (Bethesda, MD). The basic principle is that cells grown on any ECM are, in general, expected to show higher resistance to anticancer compounds than when grown on plastic. Therefore, compounds that show a higher activity toward cancer cells on a normal ECM than on a plastic surface would be candidates to target suppressed, micrometastatic cells. Efficacy in vitro was assessed by plating 30,000 cells in 50 μL of high glucose DMEM with penicillin-streptomycin and 10 % fetal calf serum on SISgel in a 96-well plate containing 50 μL of gelled SISgel per well. Cells were allowed to attach and assume the SISgel phenotype for 48 h. A matching plate without SISgel was prepared 24 h later by pipetting 3,000 cells in 100 μL of high glucose DMEM with penicillin-streptomycin and 10 % fetal calf serum into each well of 96 well plate. The cells were allowed to attach and grow for 24 h. These numbers of cells gave approximately equal replication rates at the time drug was added for cells grown on the plastic surface or SISgel as determined by the fraction of S-phase cells identified by flow cytometry. The cells were exposed to drug in fresh medium for 48 h, at which time the cell number was determined using the CFDA-AM cellular esterase proliferation assay (cat. #C1354, Life Technologies). For screening the results are reported as the ratio of cell count of cells on the plastic surface to the cell count on SISgel. An initial difference of 1.5 fold identified potential hits. All potential hits were confirmed in triplicate. Those compounds that replicated were confirmed by a full dose–response study yielding an EC50 using five wells per drug concentration. Data were analyzed using nonlinear regression to a sigmoid curve with Prism 4 (GraphPad Software, Inc., LaJolla, CA). Potential hits that were confirmed by dose–response using J82 were also tested with MDA-MB-435 breast cancer, PC-3 metastatic prostate cancer, Capan1 pancreatic cancer and the J82 bladder cancer cell lines.

In a further series the test system is J82 (bladder). Description: Proliferation EC50 on SISgel vs monolayer. It counts as cell-based. The note with it: n = 6-8.
From the text: as §1

A further series has as its system AGS (gastric). Description: Proliferation EC50 on Matrigel vs SISgel. It counts as cell-based.
The next series concerns MDA-MB-435 cells. Description: Proliferation (CFDA-AM esterase assay) of cells grown on SISgel, plastic or Matrigel, 48 h drug exposure. It counts as cell-based. The note with it: MDA-MB-435 grown on Matrigel (fully malignant phenotype).
A short description of another series: in vivo. The note with it: mouse.

On to `O=S(=O)([O-])c1cc(O)c2c(O)c(N=Nc3cccc4ccccc34)c(S(=O)(=O)[O-])cc2c1.[Na+].[Na+]` [DT320, 4,5-Dihydroxy-3-(1-naphthalenylazo)-2,7-naphthalenedisulfonic acid disodium salt], for which the EC50 in the series with DU145 (prostate) (DU145 on Matrigel, read-out: EC50 Matrigel) is 183 µM; with DU145 (prostate) (DU145 on SISgel, read-out: EC50 SISgel), 45.7 µM; in the series with Capan-1 (pancreatic) (Capan-1 monolayer, read-out: EC50 Monolayer), 80.1 ± 10.2 µM; with Capan-1 (pancreatic) (Capan-1 on SISgel, read-out: EC50 SISgel), 22.9 ± 4.8 µM; with J82 (bladder) (J82 monolayer, read-out: EC50 Monolayer) it was 71.2 ± 8.1 µM; with J82 (bladder) (J82 on SISgel, read-out: EC50 SISgel) it was 30.9 ± 4.8 µM. Also, the EC50 with AGS (gastric) (AGS on Matrigel, read-out: EC50 Matrigel) came to 104 µM; in the series with AGS (gastric) (AGS on SISgel, read-out: EC50 SISgel), 45.1 µM; in the series with MDA-MB-435 cells, 48.2 µM. The Ratio in the series on DU145 (prostate) (Matrigel/SISgel EC50, DU145) came to 4.0; in the series with AGS (gastric) (Matrigel/SISgel EC50, AGS), 2.3. Besides, the “flank xenografts in which ECM-suppressed cells were extirpated / spots disappeared” value in the series on MDA-MB-435-GFP cells is “six of eight and 6 of 8”.

Consider `COc1cccc2c1C(=O)c1c(O)c3c(c(O)c1C2=O)C[C@@](O)(C(=O)CO)C[C@@H]3O[C@H]1C[C@H](N)[C@H](O)[C@H](C)O1` [Doxorubicin, reference compound], for which the MTD is 1 mg/kg in the series “in vivo” (BALB/c, ip) and 1 mg/kg in “in vivo”.
